Results taken from PubChem BioAssay (NCI).
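A five-concentration, 48-hour dose response in 96-well plates underlies each endpoint, interpolated linearly between surrounding concentrations. TGI denotes the concentration required for complete inhibition of growth.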

Assays:
Assay in all cases: DTP human tumour cell line panel, 48 h
HOP-92 NSCLC = tested on: HOP-92 NSCLC
MALME-3M melanoma = tested on: MALME-3M melanoma
TK-10 renal = tested on: TK-10 renal
PC-3 prostate = tested on: PC-3 prostate
A549 NSCLC = tested on: A549 NSCLC
HCT-15 colon = tested on: HCT-15 colon
SF-539 CNS = tested on: SF-539 CNS
NCI/ADR-RES ovarian = tested on: NCI/ADR-RES ovarian
M14 melanoma = tested on: M14 melanoma
HOP-62 NSCLC = tested on: HOP-62 NSCLC
786-0 renal = tested on: 786-0 renal
UACC-257 melanoma = tested on: UACC-257 melanoma
HCT-116 colon = tested on: HCT-116 colon
BT-549 breast = tested on: BT-549 breast
NCI-H460 lung = tested on: NCI-H460 lung
OVCAR-8 ovarian = tested on: OVCAR-8 ovarian

Measured: TGI

CC1CCCOc2ccc(cc2)C=Nc2ccc(cc2)CCc2ccc(cc2)N=Cc2ccc(cc2)OCCC1 (configuration not stated)
> 100 µM: all assays above

[N-]=[N+]=NC1(N=[N+]=[N-])C(=O)NN=C(c2ccccc2)C1=O (configuration not stated)
38.7 µM: HCT-116 colon
> 100 µM: all other assays above

O=C1c2ccccc2C(=O)c2c(OCC3CO3)ccc(OCC3CO3)c21 (configuration not stated)
4.5 µM: HCT-15 colon
22.2 µM: A549 NSCLC
6.48 µM: 786-0 renal
20 µM: MALME-3M melanoma
10.7 µM: HOP-92 NSCLC
11.5 µM: HCT-116 colon
19.4 µM: UACC-257 melanoma
12 µM: PC-3 prostate
7.09 µM: HOP-62 NSCLC
15.5 µM: BT-549 breast
4.78 µM: M14 melanoma
9.02 µM: SF-539 CNS
8.73 µM: NCI/ADR-RES ovarian
5.94 µM: OVCAR-8 ovarian
8.86 µM: NCI-H460 lung
53.1 µM: TK-10 renal

C[C@]12CC[C@@H]3c4ccc(OC(=O)c5ccccc5)cc4CC[C@H]3[C@@H]1CCC2OC(=O)c1cccc2c(=O)c3ccccc3[nH]c12 (some centres not stated)
50.2 µM: HOP-62 NSCLC
38 µM: BT-549 breast
34.9 µM: HOP-92 NSCLC
32.2 µM: NCI-H460 lung
31.7 µM: 786-0 renal
29.8 µM: PC-3 prostate
46.8 µM: MALME-3M melanoma
35.6 µM: SF-539 CNS
39.9 µM: NCI/ADR-RES ovarian
36.3 µM: UACC-257 melanoma
31.5 µM: A549 NSCLC
29 µM: HCT-15 colon
30.5 µM: HCT-116 colon
39.1 µM: TK-10 renal
35.7 µM: OVCAR-8 ovarian
37.3 µM: M14 melanoma

O=S(=O)(O)c1cc(S(=O)(=O)O)c2c(N=Nc3cccc4ccccc34)c(O)ccc2c1
> 100 µM: all assays above

O=C(O)c1ccc(Nc2ccnc3cc(Cl)ccc23)cc1O
88.7 µM: SF-539 CNS
> 100 µM: all other assays above

CNC(=O)Nc1cc2c3c(c1)CCCN3CCC2
> 10 µM: all assays above

CN(C)c1ccc(N=Nc2cccc3ccoc23)cc1
> 100 µM: all assays above

COC(=O)C1([C@@H]2C[C@@H](O)[C@]3(C)CC/C=C(\C)CCC[C@H](C)[C@H](O)[C@@H]2O3)CC1
> 100 µM: all assays above

O=C(NO)c1cccc(OCc2ccc(Br)cc2)c1
> 41.4 µM: SF-539 CNS
17.4 µM: OVCAR-8 ovarian
49.9 µM: PC-3 prostate
52.8 µM: HOP-62 NSCLC
> 58.5 µM: A549 NSCLC
10.9 µM: 786-0 renal
20.1 µM: M14 melanoma
17.6 µM: MALME-3M melanoma
15.2 µM: HCT-116 colon
46.7 µM: HOP-92 NSCLC
28.4 µM: NCI/ADR-RES ovarian
14 µM: NCI-H460 lung
> 100 µM: all other assays above

c1ccc(N/N=C2\CC(c3ccccc3)Oc3ccccc32)cc1 (configuration not stated)
66.8 µM: 786-0 renal
> 100 µM: all other assays above

CN(CCc1ccc(Br)cc1)CCN1CCCCC1
96.1 µM: BT-549 breast
82.8 µM: HOP-92 NSCLC
48.7 µM: MALME-3M melanoma
64.8 µM: SF-539 CNS
45.8 µM: M14 melanoma
> 100 µM: all other assays above

COC(=O)c1cc(Br)c(C(=O)C(Cl)(Cl)Cl)[nH]1
> 100 µM: all assays above

O=c1c2cccnc2[nH]c2ccc3scnc3c12
9.79 µM: HCT-116 colon
> 10 µM: all other assays above

CC12CN(CC[N+](C)(C)C)CC1(C)C1CCC2O1 (configuration not stated)
> 100 µM: all assays above

COC(=O)CCc1ccc2c(c1)CCC2
> 100 µM: all assays above

COC1Cc2c(C)c(OC(C)=O)c3cccnc3c2O1 (configuration not stated)
44.7 µM: OVCAR-8 ovarian
34.3 µM: 786-0 renal
34 µM: A549 NSCLC
61.5 µM: NCI-H460 lung
90.9 µM: HOP-62 NSCLC
29.8 µM: UACC-257 melanoma
22.1 µM: HCT-15 colon
31.9 µM: MALME-3M melanoma
27.7 µM: M14 melanoma
33.8 µM: HOP-92 NSCLC
67.4 µM: NCI/ADR-RES ovarian
41.5 µM: BT-549 breast
> 100 µM: all other assays above

CCCCCCCCCCCCCCCCOP(=O)(O)OP(=O)(O)OCC1OC(n2ccc(N)nc2=O)CC1O (configuration not stated)
> 100 µM: all assays above

Cc1c(O)c(OC2OC(CO)C(O)C(O)C2O)cc2c1CC[C@@H]1C2(C)C(=O)C[C@]2(C)[C@@H]([C@@](C)(O)C(O)/C=C/C(C)(C)O)[C@H](O)C[C@@]12C (some centres not stated)
> 100 µM: all assays above

O=C1CC2[C@@H](N3CCCC3)CCC(N1Cc1ccccc1)C2(O)O (some centres not stated)
> 100 µM: all assays above

C1COC2SC3=C(SC(=C4SC5=C(SCCS5)S4)S3)SC2O1 (configuration not stated)
> 100 µM: all assays above

CCOC(=O)C(NNS(=O)(=O)c1ccc(C)cc1)S(=O)(=O)C(F)(F)C(F)(F)C(F)(F)C(F)(F)F (configuration not stated)
> 100 µM: all assays above

Cc1cc(C)c2c(=O)cc(-c3ccc(Cl)cc3)[nH]c2n1
> 59.3 µM: MALME-3M melanoma
99.4 µM: BT-549 breast
83.1 µM: UACC-257 melanoma
> 74.3 µM: NCI/ADR-RES ovarian
> 63.4 µM: HCT-116 colon
> 50.7 µM: PC-3 prostate
> 100 µM: all other assays above

COC(=O)c1ccccc1C1CN=NC12Cc1c(C)cc(C)cc1C2=O (configuration not stated)
> 100 µM: all assays above

C=CCNC1=C2C[C@@H](C)C[C@@H](OC)[C@H](OC(=O)CN(C)C)[C@H](C)/C=C(\C)[C@@H](OC(N)=O)[C@H](OC)/C=C\C=C(/C)C(=O)NC(=CC1=O)C2=O
15.6 µM: NCI-H460 lung
21 µM: 786-0 renal
> 92.1 µM: NCI/ADR-RES ovarian
16.9 µM: A549 NSCLC
16.2 µM: SF-539 CNS | HCT-116 colon
17.6 µM: HOP-62 NSCLC
16.6 µM: PC-3 prostate
19 µM: MALME-3M melanoma
24 µM: BT-549 breast
63.1 µM: OVCAR-8 ovarian
18.9 µM: M14 melanoma
16.3 µM: TK-10 renal
20.4 µM: HCT-15 colon
23.3 µM: HOP-92 NSCLC
17.2 µM: UACC-257 melanoma

CCOC(=O)Cc1ccc(Nc2nc3cc(C(F)(F)F)ccc3nc2C(=O)OCC)cc1
55.3 µM: SF-539 CNS
> 100 µM: all other assays above

CCCCCCCC/C=C\CCCCCCCCNc1ccn(C2OC(COP(=O)(O)OC3CC(n4cc(F)c(=O)[nH]c4=O)OC3CO)C(O)C2O)c(=O)n1 (configuration not stated)
> 73.5 µM: M14 melanoma
5.16 µM: SF-539 CNS
> 100 µM: all other assays above
